Assay results from patent US11203601B2, “Tricyclic compounds as glycogen synthase kinase 3 (GSK3) inhibitors and uses thereof” (The Broad Institute, Inc., priority 2017, dated 2021).

Assays:
Test in all cases: Carna kinome panel
Format in all cases: biochemical
PKCζ = PKCζ (Homo sapiens (Human), UniProt Q05513); conditions: read-out: % Inhibition at 10 μM of the test compound
CaMK2δ = CaMK2δ (Homo sapiens (Human), UniProt Q13557); conditions: read-out: % Inhibition at 10 μM of the test compound
PLK3 = PLK3 (Homo sapiens (Human), UniProt Q9H4B4); conditions: read-out: % Inhibition at 10 μM of the test compound
Sequence of PLK3 (Q9H4B4 whole entry): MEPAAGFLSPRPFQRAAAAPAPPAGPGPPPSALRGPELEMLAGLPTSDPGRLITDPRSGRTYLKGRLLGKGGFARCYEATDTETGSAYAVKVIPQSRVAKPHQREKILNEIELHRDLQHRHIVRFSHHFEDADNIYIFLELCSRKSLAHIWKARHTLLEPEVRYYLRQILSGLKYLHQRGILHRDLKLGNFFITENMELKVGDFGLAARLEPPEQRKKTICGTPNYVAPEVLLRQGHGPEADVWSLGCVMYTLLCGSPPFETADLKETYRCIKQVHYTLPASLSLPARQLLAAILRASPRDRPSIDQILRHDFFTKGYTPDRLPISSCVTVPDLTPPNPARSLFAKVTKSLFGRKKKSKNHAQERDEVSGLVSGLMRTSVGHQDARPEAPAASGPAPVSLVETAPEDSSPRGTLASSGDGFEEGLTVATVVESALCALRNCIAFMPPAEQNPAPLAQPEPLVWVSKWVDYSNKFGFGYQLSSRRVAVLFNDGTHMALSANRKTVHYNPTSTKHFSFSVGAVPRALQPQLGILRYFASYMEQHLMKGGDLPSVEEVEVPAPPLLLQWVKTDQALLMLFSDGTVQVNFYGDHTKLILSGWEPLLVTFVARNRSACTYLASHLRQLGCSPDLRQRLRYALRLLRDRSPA

ABL(E255K) = ABL(E255K) (Homo sapiens (Human), UniProt P00519, E255K); conditions: read-out: % Inhibition at 10 μM of the test compound
PDHK4 = PDHK4 (Homo sapiens (Human), UniProt Q16654); conditions: read-out: % Inhibition at 10 μM of the test compound
EPHA6 = EPHA6 (Homo sapiens (Human), UniProt Q9UF33); conditions: read-out: % Inhibition at 10 μM of the test compound
Method: (§1) Briefly, a selection of compounds was screened against a panel of kinases at a single concentration of 10 μM. […] This was completed using one of two assays, depending on the kinase being examined: 1) IMAP Assay. A solution of 4× inhibitor, 4× substrate/ATP/metal solution and 2× kinase solution was prepared with assay buffer (20 mM HEPES, 0.01% Tween-20, 2 mM DTT, pH 7.4) and mixed, then incubated in 384-well black plates for 1 hour at room temperature. The IMAP binding reagent (IMAP Screening Express kit; Molecular Devices) was added to each well and incubated for 30 minutes. […] 2) Off-Chip Mobility Shift Assay (MSA). A solution of 4× inhibitor, 4× substrate/ATP/metal solution and 2× kinase solution was prepared with assay buffer (20 mM HEPES, 0.01% Triton X-100, 2 mM DTT, pH 7.5) and mixed, then incubated in 384-well plates for 1 or 5 hours depending on the kinase, at room temperature. Termination buffer (QuickScout Screening assist MSA; Carna Biosciences) was added to each well. The entire reaction mixture was then applied to a LabChip3000 system (Caliper Life Science), and the product and substrate peptide peaks were separated and quantified. […] The entire reaction mixture was then applied to a LabChip3000 system (Caliper Life Science), and the product and substrate peptide peaks were separated and quantified.

FGFR4(V550E) = FGFR4(V550E) (Homo sapiens (Human), UniProt P22455, V550E); conditions: read-out: % Inhibition at 10 μM of the test compound
TYK2 = TYK2 (Homo sapiens (Human), UniProt P29597); conditions: read-out: % Inhibition at 10 μM of the test compound
Sequence of TYK2 (P29597 whole entry): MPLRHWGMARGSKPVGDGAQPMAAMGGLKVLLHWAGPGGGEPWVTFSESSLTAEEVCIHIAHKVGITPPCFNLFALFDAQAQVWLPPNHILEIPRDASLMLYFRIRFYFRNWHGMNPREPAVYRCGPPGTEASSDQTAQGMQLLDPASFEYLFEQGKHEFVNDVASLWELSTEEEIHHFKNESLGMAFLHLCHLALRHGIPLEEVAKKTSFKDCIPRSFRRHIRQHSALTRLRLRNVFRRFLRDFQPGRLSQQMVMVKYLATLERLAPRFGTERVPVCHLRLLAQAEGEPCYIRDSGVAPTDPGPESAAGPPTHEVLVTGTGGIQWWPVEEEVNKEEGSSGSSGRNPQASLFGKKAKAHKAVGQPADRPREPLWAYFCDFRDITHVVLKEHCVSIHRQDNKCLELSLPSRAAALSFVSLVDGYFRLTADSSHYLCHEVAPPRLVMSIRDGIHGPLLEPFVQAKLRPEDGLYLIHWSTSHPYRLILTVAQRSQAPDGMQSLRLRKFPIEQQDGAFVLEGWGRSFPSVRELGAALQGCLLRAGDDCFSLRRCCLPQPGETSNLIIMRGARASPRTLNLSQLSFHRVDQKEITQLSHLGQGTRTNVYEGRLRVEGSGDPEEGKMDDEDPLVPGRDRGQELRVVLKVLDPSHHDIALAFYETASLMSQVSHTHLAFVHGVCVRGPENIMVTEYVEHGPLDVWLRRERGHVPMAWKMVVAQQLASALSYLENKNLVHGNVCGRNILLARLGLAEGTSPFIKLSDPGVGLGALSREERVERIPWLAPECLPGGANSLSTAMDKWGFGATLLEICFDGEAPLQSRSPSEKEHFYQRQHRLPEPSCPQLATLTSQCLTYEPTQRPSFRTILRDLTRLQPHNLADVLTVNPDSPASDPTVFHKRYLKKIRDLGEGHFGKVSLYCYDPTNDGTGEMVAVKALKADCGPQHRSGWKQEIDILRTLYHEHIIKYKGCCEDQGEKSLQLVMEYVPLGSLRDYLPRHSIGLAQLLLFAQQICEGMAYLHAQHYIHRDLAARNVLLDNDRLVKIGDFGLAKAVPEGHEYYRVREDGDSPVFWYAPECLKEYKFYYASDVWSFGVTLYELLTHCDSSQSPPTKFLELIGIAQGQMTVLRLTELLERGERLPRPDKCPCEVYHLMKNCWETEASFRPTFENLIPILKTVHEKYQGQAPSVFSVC

MST2 = MST2 (Homo sapiens (Human), UniProt Q13188); conditions: read-out: % Inhibition at 10 μM of the test compound
Sequence of MST2 (Q13188 whole entry): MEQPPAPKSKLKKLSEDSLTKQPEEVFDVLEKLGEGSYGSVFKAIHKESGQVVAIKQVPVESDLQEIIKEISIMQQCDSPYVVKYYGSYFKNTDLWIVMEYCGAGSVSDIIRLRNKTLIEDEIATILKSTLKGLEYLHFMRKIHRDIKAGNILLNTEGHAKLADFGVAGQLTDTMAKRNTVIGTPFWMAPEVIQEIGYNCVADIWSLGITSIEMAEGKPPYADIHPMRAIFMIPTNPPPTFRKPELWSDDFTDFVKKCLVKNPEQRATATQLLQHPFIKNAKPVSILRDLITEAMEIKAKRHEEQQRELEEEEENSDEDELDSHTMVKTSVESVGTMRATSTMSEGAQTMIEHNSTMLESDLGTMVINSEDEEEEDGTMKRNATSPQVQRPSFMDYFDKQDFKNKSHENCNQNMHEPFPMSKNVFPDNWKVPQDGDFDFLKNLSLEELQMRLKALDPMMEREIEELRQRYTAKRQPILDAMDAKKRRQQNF

EPHA1 = EPHA1 (Homo sapiens (Human), UniProt P21709); conditions: read-out: % Inhibition at 10 μM of the test compound
AKT1 = AKT1 (Homo sapiens (Human), UniProt P31749); conditions: read-out: % Inhibition at 10 μM of the test compound
Sequence of AKT1 (P31749 whole entry): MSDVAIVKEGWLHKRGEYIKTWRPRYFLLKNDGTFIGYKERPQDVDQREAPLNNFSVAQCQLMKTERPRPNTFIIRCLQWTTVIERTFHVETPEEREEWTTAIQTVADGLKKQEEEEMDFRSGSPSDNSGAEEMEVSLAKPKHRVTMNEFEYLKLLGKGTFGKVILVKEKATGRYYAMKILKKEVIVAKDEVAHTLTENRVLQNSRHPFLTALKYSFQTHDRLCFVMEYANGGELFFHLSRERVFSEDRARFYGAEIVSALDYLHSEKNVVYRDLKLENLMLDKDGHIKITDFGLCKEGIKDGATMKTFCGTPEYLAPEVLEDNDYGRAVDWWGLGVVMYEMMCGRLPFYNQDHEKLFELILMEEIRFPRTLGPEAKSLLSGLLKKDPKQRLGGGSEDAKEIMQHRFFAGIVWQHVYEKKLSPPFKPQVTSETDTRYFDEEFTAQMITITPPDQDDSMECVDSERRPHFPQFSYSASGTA

ALK(L1152insT) = tested on: ALK(L1152insT)
Method: as §1

CHK2 = CHK2 (Homo sapiens (Human), UniProt O96017); conditions: read-out: % Inhibition at 10 μM of the test compound
MAP2K5_Cascade = MAP2K5_Cascade (Homo sapiens (Human), UniProt Q13163); conditions: read-out: % Inhibition at 10 μM of the test compound
Sequence of MAP2K5_Cascade (Q13163 whole entry): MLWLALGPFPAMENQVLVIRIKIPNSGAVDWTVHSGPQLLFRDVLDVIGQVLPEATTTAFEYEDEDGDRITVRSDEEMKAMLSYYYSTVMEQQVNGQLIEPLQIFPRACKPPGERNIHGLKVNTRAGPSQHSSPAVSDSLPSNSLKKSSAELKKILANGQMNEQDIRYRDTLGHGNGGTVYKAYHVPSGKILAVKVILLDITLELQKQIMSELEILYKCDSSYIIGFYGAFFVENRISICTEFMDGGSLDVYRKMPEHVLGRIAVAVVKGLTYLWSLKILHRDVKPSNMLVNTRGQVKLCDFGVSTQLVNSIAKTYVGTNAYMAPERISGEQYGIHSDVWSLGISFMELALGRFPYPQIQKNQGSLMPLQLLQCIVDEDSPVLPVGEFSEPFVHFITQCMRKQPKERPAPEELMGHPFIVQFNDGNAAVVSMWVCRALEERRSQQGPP

PKCε = PKCε (Homo sapiens (Human), UniProt Q02156); conditions: read-out: % Inhibition at 10 μM of the test compound
PDGFRα(V561D) = PDGFRα(V561D) (Homo sapiens (Human), UniProt P16234, V561D); conditions: read-out: % Inhibition at 10 μM of the test compound
BMX = BMX (Homo sapiens (Human), UniProt P51813); conditions: read-out: % Inhibition at 10 μM of the test compound
QIK = QIK (Homo sapiens (Human), UniProt Q9H0K1); conditions: read-out: % Inhibition at 10 μM of the test compound
PHKG1 = PHKG1 (Homo sapiens (Human), UniProt Q16816); conditions: read-out: % Inhibition at 10 μM of the test compound
FGFR4(V550L) = FGFR4(V550L) (Homo sapiens (Human), UniProt P22455, V550L); conditions: read-out: % Inhibition at 10 μM of the test compound
MAP3K2_Cascade = MAP3K2_Cascade (Homo sapiens (Human), UniProt Q9Y2U5); conditions: read-out: % Inhibition at 10 μM of the test compound
FGFR1(V561M) = FGFR1(V561M) (Homo sapiens (Human), UniProt P11362, V561M); conditions: read-out: % Inhibition at 10 μM of the test compound
Sequence of FGFR1(V561M) (P11362 22-822 V561M): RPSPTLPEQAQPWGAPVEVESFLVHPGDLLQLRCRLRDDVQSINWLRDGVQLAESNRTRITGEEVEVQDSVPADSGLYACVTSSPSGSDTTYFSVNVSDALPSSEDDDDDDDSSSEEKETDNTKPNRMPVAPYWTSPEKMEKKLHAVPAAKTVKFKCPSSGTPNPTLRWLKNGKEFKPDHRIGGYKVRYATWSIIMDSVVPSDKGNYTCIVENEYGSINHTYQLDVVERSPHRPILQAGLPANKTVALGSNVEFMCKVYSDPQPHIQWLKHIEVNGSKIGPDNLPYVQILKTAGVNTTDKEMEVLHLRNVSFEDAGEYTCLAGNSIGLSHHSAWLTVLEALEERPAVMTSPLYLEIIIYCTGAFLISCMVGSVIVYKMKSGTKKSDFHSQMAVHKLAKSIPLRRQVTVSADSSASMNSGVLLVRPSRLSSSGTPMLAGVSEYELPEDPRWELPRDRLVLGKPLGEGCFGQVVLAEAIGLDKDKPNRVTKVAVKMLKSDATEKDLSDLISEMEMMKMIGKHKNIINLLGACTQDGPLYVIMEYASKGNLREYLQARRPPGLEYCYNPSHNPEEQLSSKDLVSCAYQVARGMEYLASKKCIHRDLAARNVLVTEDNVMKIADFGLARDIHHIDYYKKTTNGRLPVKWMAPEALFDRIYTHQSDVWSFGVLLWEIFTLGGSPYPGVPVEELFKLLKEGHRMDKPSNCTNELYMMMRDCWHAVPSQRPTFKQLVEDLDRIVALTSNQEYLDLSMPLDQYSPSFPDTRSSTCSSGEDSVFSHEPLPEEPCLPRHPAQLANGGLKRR

NEK4 = NEK4 (Homo sapiens (Human), UniProt P51957); conditions: read-out: % Inhibition at 10 μM of the test compound
p38γ = p38γ (Homo sapiens (Human), UniProt P53778); conditions: read-out: % Inhibition at 10 μM of the test compound
RAF1_Cascade = tested on: RAF1_Cascade
Method: as §1

PASK = PASK (Homo sapiens (Human), UniProt Q96RG2); conditions: read-out: % Inhibition at 10 μM of the test compound
AurA = AurA (Homo sapiens (Human), UniProt O14965); conditions: read-out: % Inhibition at 10 μM of the test compound
Sequence of AurA (O14965 whole entry): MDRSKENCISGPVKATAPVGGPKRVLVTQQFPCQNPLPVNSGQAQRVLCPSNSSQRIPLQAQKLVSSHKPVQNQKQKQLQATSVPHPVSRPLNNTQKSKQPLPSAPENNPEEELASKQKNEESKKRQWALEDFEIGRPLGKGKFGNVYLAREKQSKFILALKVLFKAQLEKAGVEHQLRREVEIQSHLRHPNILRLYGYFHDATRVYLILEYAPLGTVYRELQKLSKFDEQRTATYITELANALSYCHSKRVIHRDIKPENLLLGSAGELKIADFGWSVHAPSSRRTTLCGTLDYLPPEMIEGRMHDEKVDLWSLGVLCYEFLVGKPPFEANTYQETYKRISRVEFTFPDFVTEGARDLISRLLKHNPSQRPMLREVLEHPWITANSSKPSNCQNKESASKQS

PDGFRα(T674I) = PDGFRα(T674I) (Homo sapiens (Human), UniProt P16234, T674I); conditions: read-out: % Inhibition at 10 μM of the test compound
TAK1-TAB1_Cascade = TAK1-TAB1_Cascade (Homo sapiens (Human), UniProt O43318); conditions: read-out: % Inhibition at 10 μM of the test compound
TSSK2 = TSSK2 (Homo sapiens (Human), UniProt Q96PF2); conditions: read-out: % Inhibition at 10 μM of the test compound
EPHA4 = EPHA4 (Homo sapiens (Human), UniProt P54764); conditions: read-out: % Inhibition at 10 μM of the test compound
PKCδ = PKCδ (Homo sapiens (Human), UniProt Q05655); conditions: read-out: % Inhibition at 10 μM of the test compound
RSK3 = RSK3 (Homo sapiens (Human), UniProt Q15349); conditions: read-out: % Inhibition at 10 μM of the test compound
PAK2 = PAK2 (Homo sapiens (Human), UniProt Q13177); conditions: read-out: % Inhibition at 10 μM of the test compound
ALK = ALK (Homo sapiens (Human), UniProt Q9UM73); conditions: read-out: % Inhibition at 10 μM of the test compound
MNK2 = MNK2 (Homo sapiens (Human), UniProt Q9HBH9); conditions: read-out: % Inhibition at 10 μM of the test compound
AMPKα2/β1/γ1 = AMPKα2/β1/γ1 (Homo sapiens (Human), UniProt P54646); conditions: read-out: % Inhibition at 10 μM of the test compound
MST4 = MST4 (Homo sapiens (Human), UniProt Q9P289); conditions: read-out: % Inhibition at 10 μM of the test compound
CK2α2/β = CK2α2/β (Homo sapiens (Human), UniProt P19784); conditions: read-out: % Inhibition at 10 μM of the test compound
Method: as §1

CGK2 = CGK2 (Homo sapiens (Human), UniProt Q13237); conditions: read-out: % Inhibition at 10 μM of the test compound

Sequence of PKCζ (Q05513 whole entry): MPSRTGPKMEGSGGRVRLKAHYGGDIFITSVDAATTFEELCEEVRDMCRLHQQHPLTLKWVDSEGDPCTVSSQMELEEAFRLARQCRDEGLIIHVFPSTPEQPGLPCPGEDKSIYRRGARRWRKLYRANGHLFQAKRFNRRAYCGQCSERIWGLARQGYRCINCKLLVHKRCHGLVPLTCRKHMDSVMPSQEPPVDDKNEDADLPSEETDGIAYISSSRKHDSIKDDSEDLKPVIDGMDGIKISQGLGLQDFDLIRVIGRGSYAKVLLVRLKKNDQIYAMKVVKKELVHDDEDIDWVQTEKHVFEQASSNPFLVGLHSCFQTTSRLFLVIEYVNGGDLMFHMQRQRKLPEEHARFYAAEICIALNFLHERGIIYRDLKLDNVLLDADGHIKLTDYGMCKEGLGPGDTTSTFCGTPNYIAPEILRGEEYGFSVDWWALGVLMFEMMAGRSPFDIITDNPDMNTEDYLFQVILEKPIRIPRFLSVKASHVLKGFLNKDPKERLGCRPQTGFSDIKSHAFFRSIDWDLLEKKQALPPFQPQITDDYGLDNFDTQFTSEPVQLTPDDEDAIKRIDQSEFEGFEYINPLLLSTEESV

SMILES: CCC1(c2ccccc2)C2=C(CC(C)(C)CC2=O)Nc2ncsc21 (stereo not shown) [Compound 1, 9-Ethyl-6,6-dimethyl-9-phenyl-5,6,7,9-tetrahydrothiazolo[4,5-b]quinolin-8(4H)-one]
- inhibition at 10 µM (PKCζ): 0.5%
- inhibition at 10 µM (CaMK2δ): -8.6%
- inhibition at 10 µM (PLK3): 3.4%
- inhibition at 10 µM (ABL(E255K)): -1.4%
- inhibition at 10 µM (PDHK4): 8.3%
- inhibition at 10 µM (EPHA6): 21.3%
- inhibition at 10 µM (FGFR4(V550E)): 4%
- inhibition at 10 µM (TYK2): -18.9%
- inhibition at 10 µM (MST2): 4.2%
- inhibition at 10 µM (EPHA1): 2%
- inhibition at 10 µM (AKT1): 0.7%
- % Inhibition at 10 μM of the test compound (ALK(L1152insT)): −2.3%
- inhibition at 10 µM (CHK2): 3.3%
- inhibition at 10 µM (MAP2K5_Cascade): 4.3%
- inhibition at 10 µM (PKCε): -0.7%
- inhibition at 10 µM (PDGFRα(V561D)): 2.8%
- inhibition at 10 µM (BMX): -10.6%
- inhibition at 10 µM (QIK): 6.9%
- inhibition at 10 µM (PHKG1): 5.9%
- inhibition at 10 µM (FGFR4(V550L)): 3.3%
- inhibition at 10 µM (MAP3K2_Cascade): 3.4%
- inhibition at 10 µM (FGFR1(V561M)): 2.6%
- inhibition at 10 µM (NEK4): -2.5%
- inhibition at 10 µM (p38γ): 8.9%
- % Inhibition at 10 μM of the test compound (RAF1_Cascade): −6.7%
- inhibition at 10 µM (PASK): -5.2%
- inhibition at 10 µM (AurA): 0.4%
- inhibition at 10 µM (PDGFRα(T674I)): 0.3%
- inhibition at 10 µM (TAK1-TAB1_Cascade): 8%
- inhibition at 10 µM (TSSK2): 3.1%
- inhibition at 10 µM (EPHA4): 0%
- inhibition at 10 µM (PKCδ): 2.4%
- inhibition at 10 µM (RSK3): -4.9%
- inhibition at 10 µM (PAK2): -15.7%
- inhibition at 10 µM (ALK): -3.1%
- inhibition at 10 µM (MNK2): -2.8%
- inhibition at 10 µM (AMPKα2/β1/γ1): -4.1%
- inhibition at 10 µM (MST4): -3.3%
- inhibition at 10 µM (CK2α2/β): -11.4%
- inhibition at 10 µM (CGK2): -1.6%
